Reference: BigSolDB 2.1

CCc1nc(N)nc(N)c1-c1ccc(Cl)cc1
solubility (mole fraction)
Conditions | 278.15 K | 283.15 K | 288.15 K | 293.15 K | 298.15 K | 303.15 K | 308.15 K | 313.15 K | 318.15 K
in acetone | 0.0011 | 0.00125 | 0.00147 | 0.00171 | 0.0019 | 0.00215 | 0.00241 | 0.00272 | 0.0033
in acetonitrile | 9.12e-05 | 0.000108 | 0.000148 | 0.000198 | 0.00027 | 0.000383 | 0.000469 | 0.000596 | 0.000765
in ethanol | 0.000603 | 0.000809 | 0.000972 | 0.00109 | 0.00123 | 0.00147 | 0.00181 | 0.0022 | 0.00254
in ethyl acetate | 0.00141 | 0.00151 | 0.0017 | 0.00194 | 0.00218 | 0.00246 | 0.0029 | 0.00334 | 0.00389
in isobutanol | 0.000678 | 0.000904 | 0.0011 | 0.00125 | 0.0014 | 0.00167 | 0.00198 | 0.00238 | 0.00274
in isopropanol | 0.000234 | 0.000323 | 0.000456 | 0.00057 | 0.000709 | 0.000853 | 0.00104 | 0.00125 | 0.00152
in isopropyl acetate | 0.000583 | 0.000717 | 0.000861 | 0.00107 | 0.00129 | 0.00155 | 0.00185 | 0.00226 | 0.00259
in methanol | 0.000854 | 0.0011 | 0.00131 | 0.00151 | 0.00176 | 0.00203 | 0.00237 | 0.00278 | 0.00332
in methyl acetate | 0.000372 | 0.000482 | 0.000615 | 0.000811 | 0.00105 | 0.00127 | 0.00158 | 0.00186 | 0.0023
in n-butanol | 0.000802 | 0.000993 | 0.00124 | 0.00141 | 0.00164 | 0.00192 | 0.00227 | 0.00263 | 0.00317
in n-propanol | 0.000712 | 0.000936 | 0.00118 | 0.00135 | 0.00152 | 0.00179 | 0.00211 | 0.00252 | 0.00298
in n-propyl acetate | 0.000822 | 0.000952 | 0.00111 | 0.00136 | 0.00154 | 0.0018 | 0.0021 | 0.00243 | 0.00289
in sec-butanol | 0.000398 | 0.000554 | 0.000662 | 0.000824 | 0.00106 | 0.0013 | 0.00164 | 0.00198 | 0.00227
